In one test the test system is CAL-62. Description: CCK-8 tumor cell proliferation, CAL-62. The test is classed as cell-based, Human. The settings on record: Homo sapiens, CAL-62. Put shortly:
(§1)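 Using the CCK-8 kit, viability of plated cells is assessed after exposure to compound across ten concentrations (5-fold serial dilution, top 10 μM) added at 24 h. IC50 is obtained by curve fitting of growth inhibition.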

A further test has as its system Jurkat. Put plainly: CCK-8 tumor cell proliferation, Jurkat. The test is classed as cell-based, Human. The settings on record: Homo sapiens. As to the method:
(§2) The tumor cells used herein were cultured in a cell culture medium listed in table 4 at 37° C. in an incubator with 5% CO2. Prior to experimentation, all cells used were correctly identified by STR profiling, and tested negative for mycoplasma through routine screenings.
(§3) IC50 values of the compounds of the present disclosure (including the compounds in Tables 1 and 3, and compounds of examples) were measured using the Meilun Cell Counting Kit-8 kit from Dalian Meilun Biotech Co., Ltd. Assay details are as follows: tumor cells were seeded in a 96-well plate at a density listed in Table 5. After 24 h, 100 μL of the inoculated cells were treated with 0.5 μL of the compounds of the present disclosure (including the compounds in Tables 1 and 3, and compounds of examples) at 10 different successively decreasing concentrations (starting at the highest concentration of 10 μM; 5-fold serial dilutions). After the cells were treated with the compounds of the present disclosure for a period of time, the cell viability detection reagent was added to the culture medium for cell viability assessment according to the instructions provided with the CCK-8 kit. […] The growth inhibition of the compounds of the present disclosure on cells was plotted by Prism Graphpad software, and the IC50 values of the compounds of the present disclosure were calculated therefrom.

Another test relates to MM.1R. Put plainly: CCK-8 tumor cell proliferation, MM.1R. The test is classed as cell-based. As to the method: as §2, §3
The test system of another test is MV-4-11. Description: CCK-8 tumor cell proliferation, MV-4-11. The test is classed as cell-based, Human. The settings on record: Homo sapiens, MV4-11, MV-4-11, read-out: IC50 inhibiting proliferation of tumor cells, MV-4-11. As to the method: as §2, §3
Another test concerns SR. Put plainly: CCK-8 tumor cell proliferation, SR. The test is classed as cell-based, Human. The settings on record: Homo sapiens; Table 15, ALK inhibitor based; SR; read-out: IC50 inhibiting proliferation of tumor cells, SR. The method in brief: as §1
For a further test, the system named is CCRF-CEM. Put plainly: CCK-8 tumor cell proliferation, CCRF-CEM. The settings on record: Homo sapiens; Table 19, IRAK4 inhibitor based; CCRF-CEM; read-out: IC50 inhibiting proliferation of tumor cells, CCRF-CEM. The test is classed as cell-based, Human. The method in brief:
as §1

Setting [1] is: Table 23, compared to Comparative Example compounds, read-out: Inhibitory activity (IC50, nM) against tumor cell proliferation, CAL-62.
Where [2] appears, read: Table 23, compared to Comparative Example compounds, read-out: Inhibitory activity (IC50, nM) against tumor cell proliferation, Jurkat.
[3] abbreviates: Table 23, compared to Comparative Example compounds, read-out: Inhibitory activity (IC50, nM) against tumor cell proliferation, MM.1R.
[4] abbreviates: Table 19, IRAK4 inhibitor based.
Where [5] appears, read: Table 19, IRAK4 inhibitor based, read-out: IC50 inhibiting proliferation of tumor cells, CAL-62.
[6] abbreviates: Table 19, IRAK4 inhibitor based, read-out: IC50 inhibiting proliferation of tumor cells, Jurkat.
The mark [7] stands for this setting: Table 19, IRAK4 inhibitor based, read-out: IC50 inhibiting proliferation of tumor cells, MM.1R.

Where two headings read alike, the source gives them in different places.

Consider `COc1cc(N2CCC(N(C)CCc3ccc4c(c3)CN(C3CCC(=O)NC3=O)C4=O)CC2)ccc1Nc1ncc(Cl)c(Nc2ccccc2P(C)(C)=O)n1` (centres unmarked) [GT-04513, 3-(5-(2-((1-(4-((5-chloro-4-((2-(dimethylphosphoryl)phenyl)amino)pyrimidin-2-yl)amino)-3-methoxyphenyl)piperidin-4-yl)(methyl)amino)ethyl)-1-oxoisoindolin-2-yl)piperidine-2,6-dione], for which the IC50 with CAL-62 (setting [1]) fell in the range of 1000 to 5000 nM; in the test with Jurkat (setting [2]), 1000 to 5000 nM; in the test with MM.1R (setting [3]), 100 to 500 nM.

`Cc1cc(-c2nc(C(=O)Nc3cc4oc(N5CCN(Cc6ccc7c(c6F)CN(C6CCC(=O)NC6=O)C7=O)CC5)nc4nc3N3CC[C@@H](O)C3)co2)ccn1` (stereo partly drawn) [GT-03841, N-(2-(4-((2-(2,6-dioxopiperidin-3-yl)-4-fluoro-1-oxoisoindolin-5-yl)methyl)piperazin-1-yl)-5-((R)-3-hydroxypyrrolidin-1-yl)oxazolo[4,5-b]pyridin-6-yl)-2-(2-methylpyridin-4-yl)oxazole-4-carboxamide]: in the test on MV-4-11 (setting [4]), the IC50 was 100 to 500 nM.

Regarding `CCc1cc2c(cc1N1CCC(N3CCN(CCCc4ccc5c(c4)CN(C4CCC(=O)NC4=O)C5=O)CC3)CC1)C(C)(C)c1[nH]c3cc(C#N)ccc3c1C2=O` (centres unmarked) [GT-04457, 8-(4-(4-(3-(2-(2,6-dioxopiperidin-3-yl)-1-oxoisoindolin-5-yl)propyl)piperazin-1-yl)piperidin-1-yl)-9-ethyl-6,6-dimethyl-11-oxo-6,11-dihydro-5H-benzo[b]carbazole-3-carbonitrile], the IC50 lay within 5000 to 10000 nM with CAL-62 (setting [1]), 100 to 500 nM in the test with Jurkat (setting [2]) and 5000 to 10000 nM in the test with MM.1R (setting [3]).

For `COc1cc(N2CCN(Cc3cc(F)c4c(c3)CN(C3CCC(=O)NC3=O)C4=O)CC2)ccc1Nc1ncc(Cl)c(Nc2ccccc2P(C)(C)=O)n1` (centres unmarked) [GT-03778, 3-(5-((4-(4-((5-chloro-4-((2-(dimethylphosphoryl)phenyl)amino)pyrimidin-2-yl)amino)-3-methoxyphenyl)piperazin-1-yl)methyl)-7-fluoro-1-oxoisoindolin-2-yl)piperidine-2,6-dione], the IC50 was < 50 nM with SR and 100 to 500 nM in the test on MV-4-11 (Table 15, ALK inhibitor based).

For `CC(C)(O)c1cc2nc(C3CCN(Cc4cc5c(cc4F)C(=O)N(C4CCC(=O)NC4=O)C5)CC3)oc2cc1NC(=O)c1cccc(C(F)(F)F)n1` (centres unmarked) [GT-04519, N-(2-(1-((2-(2,6-dioxopiperidin-3-yl)-6-fluoro-1-oxoisoindolin-5-yl)methyl)piperidin-4-yl)-5-(2-hydroxypropan-2-yl)benzo[d]oxazol-6-yl)-6-(trifluoromethyl)picolinamide], the IC50 in the test with CAL-62 (setting [5]), in the test with Jurkat (setting [6]) and with MM.1R (setting [7]) was < 50 nM each time.

Turning to `CCc1cc2c(cc1N1CCC(N3CCN(CCc4ccc5c(c4)CN(C4CCC(=O)NC4=O)C5=O)CC3)CC1)C(C)(C)c1[nH]c3cc(C#N)ccc3c1C2=O` (centres unmarked) [GT-04512, 8-(4-(4-(2-(2-(2,6-dioxopiperidin-3-yl)-1-oxoisoindolin-5-yl)ethyl)piperazin-1-yl)piperidin-1-yl)-9-ethyl-6,6-dimethyl-11-oxo-6,11-dihydro-5H-benzo[b]carbazole-3-carbonitrile], the IC50 in the test with CAL-62 (setting [1]) lay in the range of 1000 to 5000 nM; in the test on Jurkat (setting [2]) it was 100 to 500 nM; in the test on MM.1R (setting [3]), 1000 to 5000 nM.

For the compound `CC(C)(O)c1cc2nc(C3CCN(Cc4ccc5c(c4F)CN(C4CCC(=O)NC4=O)C5=O)CC3)oc2cc1NC(=O)c1cccc(C(F)(F)F)n1` (centres unmarked) [GT-04518, N-(2-(1-((2-(2,6-dioxopiperidin-3-yl)-4-fluoro-1-oxoisoindolin-5-yl)methyl)piperidin-4-yl)-5-(2-hydroxypropan-2-yl)benzo[d]oxazol-6-yl)-6-(trifluoromethyl)picolinamide], the IC50 is 100 to 500 nM with CAL-62 (setting [5]), < 50 nM with Jurkat (setting [6]) and 50 to 100 nM in the test with MM.1R (setting [7]).

For `Cc1cc(-c2nc(C(=O)Nc3cc4oc(N5CCN(Cc6ccc7c(c6)C(=O)N(C6CCC(=O)NC6=O)C7=O)CC5)nc4nc3N3CC[C@@H](O)C3)co2)ccn1` (stereo partly drawn) [GT-03845, N-(2-(4-((2-(2,6-dioxopiperidin-3-yl)-1,3-dioxoisoindolin-5-yl)methyl)piperazin-1-yl)-5-((R)-3-hydroxypyrrolidin-1-yl)oxazolo[4,5-b]pyridin-6-yl)-2-(2-methylpyridin-4-yl)oxazole-4-carboxamide], the IC50 in the test with MV-4-11 (setting [4]) is 500 to 1000 nM.

As to `Cc1cc(-c2nc(C(=O)Nc3cc4oc(N5CCN(Cc6cc(F)c7c(c6)CN(C6CCC(=O)NC6=O)C7=O)CC5)nc4nc3N3CC[C@@H](O)C3)co2)ccn1` (stereo partly drawn) [GT-03843, N-(2-(4-((2-(2,6-dioxopiperidin-3-yl)-7-fluoro-1-oxoisoindolin-5-yl)methyl)piperazin-1-yl)-5-((R)-3-hydroxypyrrolidin-1-yl)oxazolo[4,5-b]pyridin-6-yl)-2-(2-methylpyridin-4-yl)oxazole-4-carboxamide], the IC50 in the test on CCRF-CEM is < 50 nM; in the test with MV-4-11 (setting [4]) it was 50 to 100 nM.

As for `Cc1cc(-c2nc(C(=O)Nc3cc4oc(N5CCN(Cc6cccc7c6CN(C6CCC(=O)NC6=O)C7=O)CC5)nc4nc3N3CC[C@@H](O)C3)co2)ccn1` (stereo partly drawn) [GT-03844, N-(2-(4-((2-(2,6-dioxopiperidin-3-yl)-1-oxoisoindolin-4-yl)methyl)piperazin-1-yl)-5-((R)-3-hydroxypyrrolidin-1-yl)oxazolo[4,5-b]pyridin-6-yl)-2-(2-methylpyridin-4-yl)oxazole-4-carboxamide], the IC50 with MV-4-11 (setting [4]) lay in the range of 100 to 500 nM.

Take `O=C1CCC(N2Cc3cc(CCCN4CCN(c5ccc([C@@H]6c7ccc(O)cc7CC[C@@H]6c6ccccc6)cc5)CC4)ccc3C2=O)C(=O)N1` (stereo partly drawn) [GT-04564, 3-(5-(3-(4-(4-((1R,2S)-6-hydroxy-2-phenyl-1,2,3,4-tetrahydronaphthalen-1-yl)phenyl)piperazin-1-yl)propyl)-1-oxoisoindolin-2-yl)piperidine-2,6-dione]: the figures for the IC50 with CAL-62 (setting [1]), in the test on Jurkat (setting [2]) and in the test on MM.1R (setting [3]) were 1000 to 5000 nM, 100 to 500 nM and 1000 to 5000 nM, respectively.

On to `Nc1ncnc2c1c(-c1ccc(Oc3ccccc3)cc1)nn2C1CCN(CCc2ccc3c(c2)CN(C2CCC(=O)NC2=O)C3=O)CC1` (centres unmarked) [GT-04563, 3-(5-(2-(4-(4-amino-3-(4-phenoxyphenyl)-1H-pyrazolo[3,4-d]pyrimidin-1-yl)piperidin-1-yl)ethyl)-1-oxoisoindolin-2-yl)piperidine-2,6-dione], for which the IC50 in the test with CAL-62 (setting [1]) was 5000 to 10000 nM; in the test on Jurkat (setting [2]) it was 1000 to 5000 nM; in the test on MM.1R (setting [3]) it was < 50 nM.

For the compound `Cc1cc(-c2nc(C(=O)Nc3cc4oc(N5CCN(Cc6cc7c(cc6F)C(=O)N(C6CCC(=O)NC6=O)C7)CC5)nc4nc3N3CC[C@@H](O)C3)co2)ccn1` (stereo partly drawn) [GT-03842, N-(2-(4-((2-(2,6-dioxopiperidin-3-yl)-6-fluoro-1-oxoisoindolin-5-yl)methyl)piperazin-1-yl)-5-((R)-3-hydroxypyrrolidin-1-yl)oxazolo[4,5-b]pyridin-6-yl)-2-(2-methylpyridin-4-yl)oxazole-4-carboxamide], in the test with MV-4-11 (setting [4]), the IC50 was 100 to 500 nM.

In the case of `O=C1CCC(N2Cc3cc(CCN4CCN(c5ccc([C@@H]6c7ccc(O)cc7CC[C@@H]6c6ccccc6)cc5)CC4)ccc3C2=O)C(=O)N1` (stereo partly drawn) [GT-04562, 3-(5-(2-(4-(4-((1R,2S)-6-hydroxy-2-phenyl-1,2,3,4-tetrahydronaphthalen-1-yl)phenyl)piperazin-1-yl)ethyl)-1-oxoisoindolin-2-yl)piperidine-2,6-dione], the IC50 in the test on CAL-62 (setting [1]) lay in the range of 1000 to 5000 nM; in the test with Jurkat (setting [2]), 100 to 500 nM; with MM.1R (setting [3]), 5000 to 10000 nM.

For `Nc1ncnc2c1c(-c1ccc(Oc3ccccc3)cc1)nn2C1CCN(CCCc2ccc3c(c2)CN(C2CCC(=O)NC2=O)C3=O)CC1` (centres unmarked) [GT-04565, 3-(5-(3-(4-(4-amino-3-(4-phenoxyphenyl)-1H-pyrazolo[3,4-d]pyrimidin-1-yl)piperidin-1-yl)propyl)-1-oxoisoindolin-2-yl)piperidine-2,6-dione], the IC50 is > 10000 nM in the test on CAL-62 (Table 23, given as number, read-out: Inhibitory activity (IC50, nM) against tumor cell proliferation, CAL-62); 5000 to 10000 nM in the test with Jurkat (setting [2]); > 10000 nM in the test on MM.1R (Table 23, given as number, read-out: Inhibitory activity (IC50, nM) against tumor cell proliferation, MM.1R).

The record behind these values is patent US20260199323A1, “LIGAND COMPOUNDS FOR E3 UBIQUITIN LIGASE, PROTEIN DEGRADERS DEVELOPED ON BASIS OF LIGAND COMPOUNDS, AND USES THEREOF” (GLUETACS THERAPEUTICS (SHANGHAI) CO., LTD., priority 2021, published 2026).
